What was measured:
Assay type in all cases: in vivo
[1] = system: transgenic soybean plants (Gm cytoplasmic/chloroplastic ALT-1-01, ALT-2-01, ALT-3-01); test: Glyphosate tolerance of transgenic soybean plants (ALT + EPSPS), herbicide damage rate; conditions: 840 g ae/ha, 1-fold field concentration, 14 days after spraying
Description: (§1) The herbicide tolerance effects of Gm cytoplasmic ALT-1-01 soybean plants, Gm chloroplastic ALT-1-01 soybean plants, Gm cytoplasmic ALT-2-01 soybean plants, Gm chloroplastic ALT-2-01 soybean plants, Gm cytoplasmic ALT-3-01 soybean plants, Gm chloroplastic ALT-3-01 soybean plants and wild-type soybean plants on glyphosate were detected (at seedling stage), respectively.
(§2) 2 strains from Gm cytoplasmic ALT-1-01 soybean plants, Gm chloroplastic ALT-1-01 soybean plants, Gm cytoplasmic ALT-2-01 soybean plants, Gm chloroplastic ALT-2-01 soybean plants, Gm cytoplasmic ALT-3-01 soybean plants, Gm chloroplastic ALT-3-01 soybean plants and wild-type soybean plants were respectively taken each, and 10-15 plants were selected from each strain and tested. The plants above were sprayed with glyphosate (840 g ae/ha, 1-fold field concentration) and a blank solvent (water). The herbicide damage rate was measured for each plant according to the phytotoxicity symptoms 14 days after spraying (14 DAT): herbicide damage rate (%)=Σ(number of damaged plants at the same level×level number)/(total number of plants×highest level).

[2] = system: wild-type soybean plants (CK1); test: Glyphosate tolerance of wild-type soybean plants, herbicide damage rate; conditions: 840 g ae/ha, 1-fold field concentration, 14 days after spraying
Description: as §1, §2

[3] = system: transgenic Arabidopsis thaliana T1 plants (ALT-1-01, ALT-2-01, ALT-3-01; cytoplasmic or chloroplastic); test: Herbicide tolerance of transgenic Arabidopsis thaliana T1 plants expressing thifensulfuron hydrolase, resistance classes counted after spraying; conditions: for Highly resistant (number of plants with growth status consistent with blank solvent group) / Moderately resistant (number of plants with bolting height less than 1/2 of blank solvent group) / Non-resistant (number of plants dead) / Poorly resistant (number of plants still not capable of bolting): 1-fold field concentration (g ai/ha: Sulfometuron-methyl 30, iodosulfuron-methyl 10, mesosulfuron 14, oxasulfuron 60), 14 days after spraying; for ability of the transformed plants to degrade the herbicide: all the transformed Arabidopsis thaliana T1 plants (ALT-1, ALT-2 and ALT-3), 1-fold field concentration
Description: (§3) T1 transformants were initially selected from the background of untransformed seeds using a glufosinate selection scheme. About 40000 T1 seeds were screened, and 380 T1 positive transformants (PAT gene) were identified with a transformation efficiency of about 0.95%. The plants that were transformed with the recombinant expression vector DBN100632 were Arabidopsis thaliana plants having an ALT-1-01 nucleotide sequence located in the cytoplasm introduced (At cytoplasmic ALT-1-01), and the plants that were transformed with the recombinant expression vector DBN100631 were Arabidopsis thaliana plants having an ALT-1-01 nucleotide sequence located in the chloroplast introduced (At chloroplastic ALT-1-01); the plants that were transformed with the recombinant expression vector DBN100634 were Arabidopsis thaliana plants having an ALT-2-01 nucleotide sequence located in the cytoplasm introduced (At cytoplasmic ALT-2-01), and the plants that were transformed with the recombinant expression vector DBN100633 were Arabidopsis thaliana plants having an ALT-2-01 nucleotide sequence located in the chloroplast introduced (At chloroplastic ALT-2-01); and the plants that were transformed with the recombinant expression vector DBN100636 were Arabidopsis thaliana plants having an ALT-3-01 nucleotide sequence located in the cytoplasm introduced (At cytoplasmic ALT-3-01), and the plants that were transformed with the recombinant expression vector DBN100635 were Arabidopsis thaliana plants having an ALT-3-01 nucleotide sequence located in the chloroplast introduced (At chloroplastic ALT-3-01). The herbicide tolerance effects of At cytoplasmic ALT-1-01 T1 plants, At chloroplastic ALT-1-01 T1 plants, At cytoplasmic ALT-2-01 T1 plants, At chloroplastic ALT-2-01 T1 plants, At cytoplasmic ALT-3-01 T1 plants, At chloroplastic ALT-3-01 T1 plants and wild-type Arabidopsis thaliana plants on Sulfometuron-methyl were detected (14 days after sowing), respectively.
(§4) At cytoplasmic ALT-1-01 T1 plants, At chloroplastic ALT-1-01 T1 plants, At cytoplasmic ALT-2-01 T1 plants, At chloroplastic ALT-2-01 T1 plants, At cytoplasmic ALT-3-01 T1 plants, At chloroplastic ALT-3-01 T1 plants and wild-type Arabidopsis thaliana plants were sprayed with Sulfometuron-methyl (30 g ai/ha, 1-fold field concentration) and a blank solvent (water), respectively. Plants were counted for the resistance situations 14 days after spraying: those having a consistent growth status with the blank solvent (water) group after 14 days were classified as highly resistant plants, those having a bolting height less than ½ of that of the blank solvent (water) group after 14 days were classified as moderately resistant plants, those still not capable of bolting after 14 days were classified as poorly resistant plants, and those dead after 14 days were classified as non-resistant plants. Since each Arabidopsis thaliana T1 plant was an independent transformation event, a significant difference in individual T1 responses could be expected at a given dose.
(§5) At cytoplasmic ALT-1-01 T1 plants, At chloroplastic ALT-1-01 T1 plants, At cytoplasmic ALT-2-01 T1 plants, At chloroplastic ALT-2-01 T1 plants, At cytoplasmic ALT-3-01 T1 plants, At chloroplastic ALT-3-01 T1 plants and wild-type Arabidopsis thaliana plants in Example 4 were sprayed with iodosulfuron-methyl (10 g ai/ha, 1-fold field concentration), mesosulfuron (14 g ai/ha, 1-fold field concentration) and oxasulfuron (60 g ai/ha, 1-fold field concentration), respectively, in addition to Sulfometuron-methyl (30 g ai/ha, 1-fold field concentration) and the blank solvent (water). […]

[4] = system: wild-type Arabidopsis thaliana plants; test: Herbicide tolerance of wild-type Arabidopsis thaliana plants, resistance classes counted after spraying; conditions: 1-fold field concentration (g ai/ha: Sulfometuron-methyl 30, iodosulfuron-methyl 10, mesosulfuron 14, oxasulfuron 60), 14 days after spraying
Description: as §3, §4, §5

[5] = At chloroplastic ALT-1-01 T1 plants
[6] = At chloroplastic ALT-2-01 T1 plants
[7] = At chloroplastic ALT-3-01 T1 plants
[8] = At cytoplasmic ALT-1-01 T1 plants
[9] = At cytoplasmic ALT-2-01 T1 plants
[10] = At cytoplasmic ALT-3-01 T1 plants

Structure (SMILES): O=C(O)CNCP(=O)(O)O [glyphosate, N-phosphonomethylglycine]
- glyphosate herbicide damage rate ([1]; Gm chloroplastic ALT-1-01 soybean plants): ~0%
- glyphosate herbicide damage rate ([1]; Gm chloroplastic ALT-2-01 soybean plants): ~0%
- glyphosate herbicide damage rate ([1]; Gm chloroplastic ALT-3-01 soybean plants): ~0%
- glyphosate herbicide damage rate ([1]; Gm cytoplasmic ALT-1-01 soybean plants): ~0%
- glyphosate herbicide damage rate ([1]; Gm cytoplasmic ALT-2-01 soybean plants): ~0%
- glyphosate herbicide damage rate ([1]; Gm cytoplasmic ALT-3-01 soybean plants): ~0%
- glyphosate herbicide damage rate [2]: not less than 90%

Structure (SMILES): COC(=O)c1ccc(I)cc1S(=O)(=O)NC(=O)Nc1nc(C)nc(OC)n1 [iodosulfuron-methyl]
- Highly resistant (number of plants with growth status consistent with blank solvent group) [3, 5]: 0
- Moderately resistant (number of plants with bolting height less than 1/2 of blank solvent group) [3, 5]: 0
- Non-resistant (number of plants dead) [3, 5]: 30
- Poorly resistant (number of plants still not capable of bolting) [3, 5]: 0
- Highly resistant (number of plants with growth status consistent with blank solvent group) [3, 6]: 0
- Moderately resistant (number of plants with bolting height less than 1/2 of blank solvent group) [3, 6]: 0
- Non-resistant (number of plants dead) [3, 6]: 31
- Poorly resistant (number of plants still not capable of bolting) [3, 6]: 0
- Highly resistant (number of plants with growth status consistent with blank solvent group) [3, 7]: 0
- Moderately resistant (number of plants with bolting height less than 1/2 of blank solvent group) [3, 7]: 0
- Non-resistant (number of plants dead) [3, 7]: 32
- Poorly resistant (number of plants still not capable of bolting) [3, 7]: 0
- Highly resistant (number of plants with growth status consistent with blank solvent group) [3, 8]: 0
- Moderately resistant (number of plants with bolting height less than 1/2 of blank solvent group) [3, 8]: 0
- Non-resistant (number of plants dead) [3, 8]: 29
- Poorly resistant (number of plants still not capable of bolting) [3, 8]: 0
- Highly resistant (number of plants with growth status consistent with blank solvent group) [3, 9]: 0
- Moderately resistant (number of plants with bolting height less than 1/2 of blank solvent group) [3, 9]: 0
- Non-resistant (number of plants dead) [3, 9]: 30
- Poorly resistant (number of plants still not capable of bolting) [3, 9]: 0
- Highly resistant (number of plants with growth status consistent with blank solvent group) [3, 10]: 0
- Moderately resistant (number of plants with bolting height less than 1/2 of blank solvent group) [3, 10]: 0
- Non-resistant (number of plants dead) [3, 10]: 30
- Poorly resistant (number of plants still not capable of bolting) [3, 10]: 0
- ability of the transformed plants to degrade the herbicide [3]: did not exhibit the ability to degrade
- Highly resistant (number of plants with growth status consistent with blank solvent group) [4]: 0
- Moderately resistant (number of plants with bolting height less than 1/2 of blank solvent group) [4]: 0
- Non-resistant (number of plants dead) [4]: 29
- Poorly resistant (number of plants still not capable of bolting) [4]: 0

Structure (SMILES): COc1cc(OC)nc(NC(=O)NS(=O)(=O)c2cc(CNS(C)(=O)=O)ccc2C(=O)O)n1 [mesosulfuron]
- Highly resistant (number of plants with growth status consistent with blank solvent group) [3, 5]: 0
- Moderately resistant (number of plants with bolting height less than 1/2 of blank solvent group) [3, 5]: 0
- Non-resistant (number of plants dead) [3, 5]: 32
- Poorly resistant (number of plants still not capable of bolting) [3, 5]: 0
- Highly resistant (number of plants with growth status consistent with blank solvent group) [3, 6]: 0
- Moderately resistant (number of plants with bolting height less than 1/2 of blank solvent group) [3, 6]: 0
- Non-resistant (number of plants dead) [3, 6]: 30
- Poorly resistant (number of plants still not capable of bolting) [3, 6]: 0
- Highly resistant (number of plants with growth status consistent with blank solvent group) [3, 7]: 0
- Moderately resistant (number of plants with bolting height less than 1/2 of blank solvent group) [3, 7]: 0
- Non-resistant (number of plants dead) [3, 7]: 32
- Poorly resistant (number of plants still not capable of bolting) [3, 7]: 0
- Highly resistant (number of plants with growth status consistent with blank solvent group) [3, 8]: 0
- Moderately resistant (number of plants with bolting height less than 1/2 of blank solvent group) [3, 8]: 0
- Non-resistant (number of plants dead) [3, 8]: 29
- Poorly resistant (number of plants still not capable of bolting) [3, 8]: 0
- Highly resistant (number of plants with growth status consistent with blank solvent group) [3, 9]: 0
- Moderately resistant (number of plants with bolting height less than 1/2 of blank solvent group) [3, 9]: 0
- Non-resistant (number of plants dead) [3, 9]: 32
- Poorly resistant (number of plants still not capable of bolting) [3, 9]: 0
- Highly resistant (number of plants with growth status consistent with blank solvent group) [3, 10]: 0
- Moderately resistant (number of plants with bolting height less than 1/2 of blank solvent group) [3, 10]: 0
- Non-resistant (number of plants dead) [3, 10]: 30
- Poorly resistant (number of plants still not capable of bolting) [3, 10]: 0
- ability of the transformed plants to degrade the herbicide [3]: did not exhibit the ability to degrade
- Highly resistant (number of plants with growth status consistent with blank solvent group) [4]: 0
- Moderately resistant (number of plants with bolting height less than 1/2 of blank solvent group) [4]: 0
- Non-resistant (number of plants dead) [4]: 28
- Poorly resistant (number of plants still not capable of bolting) [4]: 0

Structure (SMILES): Cc1cc(C)nc(NC(=O)NS(=O)(=O)c2ccccc2C(=O)OC2COC2)n1 [oxasulfuron]
- Highly resistant (number of plants with growth status consistent with blank solvent group) [3, 5]: 0
- Moderately resistant (number of plants with bolting height less than 1/2 of blank solvent group) [3, 5]: 0
- Non-resistant (number of plants dead) [3, 5]: 30
- Poorly resistant (number of plants still not capable of bolting) [3, 5]: 0
- Highly resistant (number of plants with growth status consistent with blank solvent group) [3, 6]: 0
- Moderately resistant (number of plants with bolting height less than 1/2 of blank solvent group) [3, 6]: 0
- Non-resistant (number of plants dead) [3, 6]: 30
- Poorly resistant (number of plants still not capable of bolting) [3, 6]: 0
- Highly resistant (number of plants with growth status consistent with blank solvent group) [3, 7]: 0
- Moderately resistant (number of plants with bolting height less than 1/2 of blank solvent group) [3, 7]: 0
- Non-resistant (number of plants dead) [3, 7]: 31
- Poorly resistant (number of plants still not capable of bolting) [3, 7]: 0
- Highly resistant (number of plants with growth status consistent with blank solvent group) [3, 8]: 0
- Moderately resistant (number of plants with bolting height less than 1/2 of blank solvent group) [3, 8]: 0
- Non-resistant (number of plants dead) [3, 8]: 28
- Poorly resistant (number of plants still not capable of bolting) [3, 8]: 0
- Highly resistant (number of plants with growth status consistent with blank solvent group) [3, 9]: 0
- Moderately resistant (number of plants with bolting height less than 1/2 of blank solvent group) [3, 9]: 0
- Non-resistant (number of plants dead) [3, 9]: 30
- Poorly resistant (number of plants still not capable of bolting) [3, 9]: 0
- Highly resistant (number of plants with growth status consistent with blank solvent group) [3, 10]: 0
- Moderately resistant (number of plants with bolting height less than 1/2 of blank solvent group) [3, 10]: 0
- Non-resistant (number of plants dead) [3, 10]: 30
- Poorly resistant (number of plants still not capable of bolting) [3, 10]: 0
- ability of the transformed plants to degrade the herbicide [3]: did not exhibit the ability to degrade
- Highly resistant (number of plants with growth status consistent with blank solvent group) [4]: 0
- Moderately resistant (number of plants with bolting height less than 1/2 of blank solvent group) [4]: 0
- Non-resistant (number of plants dead) [4]: 28
- Poorly resistant (number of plants still not capable of bolting) [4]: 0

Reference: US20190055576A1, “USE OF HERBICIDE-TOLERANT PROTEIN” (BEIJING DABEINONG TECHNOLOGY GROUP CO., LTD., priority 2016, published 2019)
